Experimental data from patent publication US11739073B2, “Aryl-n-aryl derivatives for treating a RNA virus infection” (ABIVAX, priority 2018, dated 2023).

Experiments:
[1] = system: Chikungunya Virus (CHIKV); experiment: Inhibition of Chikungunya virus (CHIKV) production in infected HEK293T cell line (GFP-modified virus, fluorescence); assay type: cell-based, CHIKV strain of La Réunion outbreak (LR2006-OPY1); conditions: HEK-293T, infected HEK293T cells; for inhibition at 1 µM: compounds at 1 μM, MOI 0.1, 22 h, values above 100 lowered to 100, read-out: % CHIKV Inhibition Mean (n = 2); for IC50: read-out: IC50 (CHIKV, second round of experiments)
Procedure: The ability of the compounds to inhibit viral replication was assessed with an experiment in which infected cells were treated by compounds of formula (I) at 1 μM. As a positive control for inhibition of Chikungunya, Ribavirin was used. Toxicity of the compounds was assessed in parallel.
Human embryonic kidney cells 293T (HEK293T, CRL-11268) were maintained in Dulbecco's modified Eagle's Medium (DMEM, 31966-021, Thermo Fisher Scientific) supplemented with 10% of fetal bovine serum (FBS), penicillin and streptomycin. After removal of the medium, cells were washed with Ca^2+ and Mg^2+-free salt solution to remove all traces of serum. After aspiration of wash solution, cells were dissociated with 0.25% Trypsin-EDTA solution and incubated 30 s at least in 37° C. incubator. Concentration of cell suspension was determined by an automatic cell counter (EVE, NanoEntek) and, if needed, adjusted to 0.33×10^6 cells/mL with DMEM medium supplemented with 10% FBS.
100 μL of the cell suspension were dispatched in a ViewPlate-96 Black (6005182, PerkinElmer) and in a transparent 96-well cell culture plate (655180, Greiner bio-one). After an incubation for 24 h at 37° C. under 5% of CO2, compounds were added at the proper concentration.
An intermediate dilution was prepared with DMSO (D8418, Sigma) at 2 mM in a 96-well V-bottom microplate from the stock solution:
Mix 1 μL of the 50 mM stock library in 25 μL of DMSO.
Mix 2 μL of the 25 mM stock library in 25 μL of DMSO.
An intermediate dilution was prepared with DMSO (D8418, Sigma) at 25 mM in a 96-well V-bottom microplate from the stock solution:
Mix 2 μL of the 50 mM stock library in 2 μL of DMSO.
Perform serial dilution in 2 μL of DMSO 13 times to reach 0.0015 mM. Proceed as follows in table III:
For both screen and determination of IC50, 1 μL of each solution was added in a 1 mL Masterblock 96 wells (Greiner bio-one, 780261) containing 1 mL of DMEM medium. As a positive control, 5 μL of a 80 mM Ribavirin solution (R9644, Sigma) is added to 1 mL of DMEM. On the other hand, DMSO is used as a negative control.
[…]. Vector Borne Zoonotic Dis. 2006; 6(4)). This modified virus was used to infect cells at MOI 0.1. […]. Medium was removed after 22 h at 37° C. under 5% of CO2 and cells were washed as described above. 60 μL of RIPA buffer (50 mM Tris-HCl pH8, 100 mM NaCl, 1 mM MgCl2, 1% Triton X-100) was added to cells and incubated for at least 20 min before reading fluorescence signal. Pierce 660 nm Protein Assay Reagent (22660, Thermo scientific) was used to normalize fluorescence signal by protein quantity.
CellTiter 96® AQueous One Solution Cell Proliferation Assay (MTS) (G3581, Promega) was used to check the toxicity of the compounds. We added 20 μL of MTS solution and read absorbance at 492 nm one hour later.
Results • A first round of experiments has been performed wherein the results are expressed as inhibition percentage, which is calculated as follows, through the following steps:
1. Fluorescence intensity (FI)/Absorbance 660 nm (A660)=A
This ratio allows considering the infection (GFP virus) to the protein amount.
2. A′=A—background noise of non-infected plate,
3. B=Fluorescence intensity (FI)/Absorbance 660 nm (A660) of infected but non treated plates,
4. C=A′/B, which is then converted as the percentage of infection after treatment, compared to non-treated sample, and subsequently as the […]. For instance, a value of 100 in Table IV here below means that, after treatment, the signal attributed to GFP fluorescence is abolished, which is correlated to the absence of infection.
This value corresponds to the inhibition's percentage.
The following Table IV encompasses said C′ value for some compounds, as calculated above with a mean of 2 experiments, and corresponding standard deviation.
Some values were originally above 100. In these cases, the value has been lowered to 100. This means that some molecules also have an impact on the viability of the cells. […]

[2] = system: RSV; experiment: RSV inhibition in HEp-2 cells using Viral ToxGlo assay (cytopathic effect); assay type: cell-based, RSV A2; conditions: human respiratory syncytial virus, HEp-2, 72 h
Procedure: Protocol for Screening Antiviral Compounds for RSV Inhibition and Cytotoxicity Using Viral ToxGlo Assay
HEp-2 cells were maintained in Eagle's minimum essential medium (EMEM) with Earle's BSS adjusted to contain 2 mM L-glutamine, 10% fetal bovine serum, 100 U/ml penicillin and 100 μg/ml streptomycin. For the purposes of the screening assay they were grown to 90% confluency, trypsinized and recovered. The trypsin was neutralised with cell culture media and cells were centrifuged at 150×g for 5 minutes before discarding the supernatant and resuspending cell pellet in assay media (EMEM with Earle's BSS adjusted to contain 2 mM L-glutamine, 2% fetal bovine serum and 100 U/ml penicillin and 100 μg/ml streptomycin). The cells were seeded into white clear-bottomed cell culture plates at a density of 1.5×10^4 cells/well in 50 μl and 4×10^3 cells/well in 25 μl for 96 well plates and 384 well plates respectively. For the media/background control column assay media only was added. Cell plates were placed in a humid chamber and incubated overnight at 37° C./5% CO2. After overnight incubation cells were checked for confluency and healthy appearance.
Test articles were made up at 10× test concentration in a maximum DMSO concentration of 10% (final assay concentration maximal 1% DMSO) and added to the cell plates in volumes of 10 μl for 96 well plates and 5 μl for 384 well plates. For cell control and virus control wells the test article solvent only was added. Virus or assay media for cytotoxicity test wells and media/cell control wells was added immediately after test articles at an MOI of 0.5, 40 or 20 μl for 96 and 384 well plates respectively. Virus suspension was prepared by thawing RSV A2 frozen stocks and diluting to the required concentration of plaque forming units in assay media on ice.
(§1) Cell plates were further incubated inside a humid chamber for 72 h p.i at 37° C./5% CO2. After the incubation period cells were observed under the microscope to check for characteristic cytopathic effect in virus control wells and healthy cells in the cell control wells. After plates were adjusted to room temperature 20/40 μl Viral ToxGlo (Promega) was added to each well of the 384/96 well cell plates. Plates were incubated at room temperature, protected from light on a plate rocker for 20 minutes before measuring the luminescence on a spectrophotometer (Biotek Synergy HTX).
RSV inhibition was calculated as percentage of cytopathic effect inhibition relative to the virus control and cytotoxicity as percentage of cell survival relative to cell control wells. This allowed EC50 values to be calculated for each test article where a virus inhibition or cytotoxic dose response was identified.

[3] = system: DENV-2; experiment: DENV-2 inhibition in A549 cells using Viral ToxGlo assay (cytopathic effect); assay type: cell-based, DENV-2 strain 16681; conditions: Dengue virus, DENV2, A549, 120 h, read-out: % DENV-2 Inhibition Mean (n = 3)
Procedure: Protocol for Screening Antiviral Compounds for DENV-2 Inhibition and Cytotoxicity Using Viral ToxGlo Assay
A549 cells were maintained in Dulbecco's Modified Eagle Medium (DMEM) supplemented with 10% fetal bovine serum, 100 U/ml penicillin and 100 μg/ml streptomycin. For the purposes of the screening assay they were grown to 90% confluency, trypsinized and recovered. The trypsin was neutralised with cell culture media and cells were centrifuged at 150×g for 5 minutes before discarding the supernatant and resuspending cell pellet in assay media (DMEM supplemented with 2% fetal bovine serum and 100 U/ml penicillin and 100 μg/ml streptomycin). The cells were seeded into 96-well white clear-bottomed cell culture plates at a density of 1.0×10^4 cells/well in 50 μl. For the media/background control column assay media only was added. Cell plates were placed in a humid chamber and incubated overnight at 37° C./5% CO2. After overnight incubation cells were checked for confluency and healthy appearance.
Test compounds were prepared at a final concentration of 10 μM in a maximum DMSO concentration of 1% (final assay concentration maximal 0.1% DMSO) and added to the cell plates in volumes of 10 μl. For cell control and virus control wells the test article solvent only was added. As a positive inhibition control, 7-Deaza-2′-C-methyladenosine was added at 100 μM in 3 wells. Virus (DENV-2 strain 16681) or assay media for cytotoxicity test wells and media/cell control wells was added immediately after test articles at an MOI of 0.5, 40 for 96 well plates respectively. Virus suspension was prepared by thawing DENV-2 frozen stocks and diluting to the required concentration of plaque forming units in assay media.
as §1, with “5 days” for “72 h”, “20” for “20/40”, “96-well” for “384/96 well”, “temperature” for “temperature, protected from light on a plate rocker”, “5” for “20”, “(Envision, PerkinElmer).” for “(Biotek Synergy HTX).”
DENV-2 inhibition was calculated as percentage of cytopathic effect inhibition relative to the virus control and cytotoxicity as percentage of cell survival relative to cell control wells.

| Structure (SMILES) | inhibition at 1 µM [1] | IC50 [1] | EC50 [2] | inhibition at 10 µM [3] |
| --- | --- | --- | --- | --- |
| CC(C)CCNC(=O)c1cccc(Nc2ccc(/C=C/c3ccccn3)cc2)c1 [Compound 1, (E)-N-isopentyl-3-((4-(2-(pyridin-2-yl)vinyl)phenyl)amino)benzamide] | 98% |  |  |  |
| CC(C)CCNC(=O)c1ccc(Nc2ccc(/C=C/c3ccccn3)cc2)cc1 [Compound 2, (E)-N-isopentyl-4-((4-(2-(pyridin-2-yl)vinyl)phenyl)amino)benzamide] | 74% |  |  |  |
| O=C(NCCC1CCCCC1)c1cccc(Nc2ccc(/C=C/c3ccccn3)cc2)c1 [Compound 4, (E)-N-(2-cyclohexylethyl)-3-((4-(2-(pyridin-2-yl)vinyl)phenyl)amino)benzamide] | 99% |  |  |  |
| O=C(NCCC1CCCC1)c1cccc(Nc2ccc(/C=C/c3ccccn3)cc2)c1 [Compound 6, (E)-N-(2-cyclopentylethyl)-3-((4-(2-(pyridin-2-yl)vinyl)phenyl)amino)benzamide] | 98% | 200 to 500 nM |  |  |
| O=C(NCCC1CCC1)c1cccc(Nc2ccc(/C=C/c3ccccn3)cc2)c1 [Compound 9, (E)-N-(2-cyclobutylethyl)-3-((4-(2-(pyridin-2-yl)vinyl)phenyl)amino)benzamide] | 98% |  |  |  |
| Cc1cc(/C=C/c2ccccn2)ccc1Nc1cccc(C(=O)NCCC2CCCC2)c1 [Compound 12, (E)-N-(2-cyclopentylethyl)-3-((2-methyl-4-(2-(pyridin-2-yl)vinyl)phenyl)amino)benzamide] |  | 1 to 200 nM | 370 to 2500 nM | 96% |
| Cc1cc(/C=C/c2ccccn2)ccc1Nc1cccc(C(=O)NCCC(C)C)c1 [Compound 13, (E)-N-isopentyl-3-((2-methyl-4-(2-(pyridin-2-yl)vinyl)phenyl)amino)benzamide] |  | 1 to 200 nM | 370 to 2500 nM | 86% |
| CC(C)CCNC(=O)c1cccc(Nc2ccc(C(=O)Nc3ccccn3)cc2)c1 [Compound 14, N-isopentyl-3-((4-(pyridin-2-ylcarbamoyl)phenyl)amino)benzamide] | 93% | 200 to 500 nM |  |  |
| O=C(NCCC1CCCC1)c1cccc(Nc2ccc(C(=O)Nc3ccccn3)cc2)c1 [Compound 15, N-(2-cyclopentylethyl)-3-((4-(pyridin-2-ylcarbamoyl)phenyl)amino)benzamide] | 98% | 200 to 500 nM |  | 107% |
| O=C(NCCC1CCCCC1)c1cccc(Nc2ccc(C(=O)Nc3ccccn3)cc2)c1 [Compound 16, N-(2-cyclohexylethyl)-3-((4-(pyridin-2-ylcarbamoyl)phenyl)amino)benzamide] | 100% | 200 to 500 nM | 1170 nM |  |
| CC(C)CCNC(=O)c1cccc(Nc2ccc(NC(=O)c3ccccn3)cc2)c1 [Compound 32, N-(4-((3-(isopentylcarbamoyl)phenyl)amino)phenyl)picolinamide] | 99% | 200 to 500 nM |  |  |
| O=C(NCCC1CCCC1)c1cccc(Nc2ccc(NC(=O)c3ccccn3)cc2)c1 [Compound 35, N-(4-((3-((2-cyclopentylethyl)carbamoyl)phenyl)amino)phenyl)picolinamide] | 100% | 200 to 500 nM |  | 66% |
| O=C(Nc1ccccc1)c1ccc(Nc2cccc(OCCCC3CCCCC3)c2)c(C2CC2)c1 [Compound 115, 4-{[3-(3-cyclohexylpropoxy)phenyl]amino}-3-cyclopropyl-N-phenylbenzamide] |  |  | 229 nM |  |
